Measured values taken from patent US10100372B2, “Recombinant RSV reporter virus” (priority 2014, dated 2018).
Like-named read-outs stand apart in the source and are kept apart here.

Key:
[1] = tested on: host cell metabolic activity; settings: sourced compound
recRSV A2-L19F [2] = type: cell-based; settings: increasing compound concentrations
recRSV A2-L19F [3] = assay: microbe, parasite or virus in culture; type: cell-based
[4] = tested on: recRSV-L19FD489E-fireSMASh; type: cell-based, Respiratory Syncytial Virus; settings: 10 μM; 96-well; BEAS-2B
RSV F protein [5] = target: T1, RSV F protein (Human respiratory syncytial virus, UniProt P12568, E66K/H515N/I79M/K191R/N371Y/N80K/T101P/T357K/V557I); type: cell-based
T1 construct: expressed in transfected cells; host or cells: HEp-2 cells infected with recRSV A2-L19F-mKate2; F is expressed from the viral genome, not from a plasmid
T1 sequence (P12568 137-574, looked up, stated change not applied): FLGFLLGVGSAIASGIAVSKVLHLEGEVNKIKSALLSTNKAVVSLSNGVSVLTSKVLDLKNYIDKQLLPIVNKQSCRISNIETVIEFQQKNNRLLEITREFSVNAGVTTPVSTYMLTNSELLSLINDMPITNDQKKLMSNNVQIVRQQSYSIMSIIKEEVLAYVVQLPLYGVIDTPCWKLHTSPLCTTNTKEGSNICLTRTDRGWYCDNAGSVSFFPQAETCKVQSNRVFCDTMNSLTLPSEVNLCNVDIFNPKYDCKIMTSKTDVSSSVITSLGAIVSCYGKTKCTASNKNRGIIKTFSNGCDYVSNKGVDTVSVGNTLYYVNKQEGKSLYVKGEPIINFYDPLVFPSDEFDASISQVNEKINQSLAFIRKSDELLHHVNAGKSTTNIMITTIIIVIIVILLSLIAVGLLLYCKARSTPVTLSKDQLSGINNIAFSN
T1 sequence (P12568 26-109, looked up, stated change not applied): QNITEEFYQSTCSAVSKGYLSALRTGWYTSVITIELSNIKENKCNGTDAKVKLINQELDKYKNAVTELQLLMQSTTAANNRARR

recRSV A2-L19F-renilla [6] = assay: microbe, parasite or virus in culture; type: cell-based; settings: human respiratory syncytial virus; 0.5 μM concentration counterscreens; read-out: RSV inhibition
recRSV A2-L19F-ren = type: cell-based; settings: GPAR-3710 added later than four hours post-infection; JMN3-003 added eight hours post-infection
RSV F protein [7] = target: T1, RSV F protein; type: cell-based; settings: plasmid-based reporter assay
[8] = tested on: recRSV A2-L19FD489E-fireSMASh; settings: for EC50 RSV A2-L19FD489E-fireSMASh: BEAS-2B, 95% confidence interval in parentheses, inactive = less than 50% reduction of mean reporter signal; for SI [CC50/EC50] RSV: SIRSV
recIAV WSN-NanoLuc [9] = assay: microbe, parasite or virus in culture; settings: Influenza A virus, BEAS-2B, read-out: EC50 IAV WSN-nanoLuc
in vitro = settings: human
recRSV A2-L19F-renilla [10] = assay: microbe, parasite or virus in culture; type: cell-based; settings: BEAS-2B; for EC50: human respiratory syncytial virus, read-out: EC50 RSV A2-L19F-renilla
recIAV WSN-NanoLuc [11] = settings: for SI [CC50/EC50] IAV: SIIAV; for EC50 IAV WSN-nanoLuc: BEAS-2B, 95% confidence interval in parentheses, inactive = less than 50% reduction of mean reporter signal
[12] = tested on: recRSV A2-L19FD489E-fireSMASh; assay: microbe, parasite or virus in culture; settings: human respiratory syncytial virus, BEAS-2B, read-out: EC50 RSV A2-L19FD489E-fireSMASh
BEAS-2B cells = settings: highest concentration 10 μM, tox = less than 50% cell viability after 44 hours at ≤10 μM
[13] = tested on: recRSV A2-L19FD489E-fireSMASh; assay: microbe, parasite or virus in culture; type: cell-based, Respiratory Syncytial Virus; settings: human respiratory syncytial virus, 384-well, four replicate screens, mean ± SD, BEAS-2B co-infection, read-out: % Inhibition (anti-RSV)
recIAV WSN-NanoLuc [14] = assay: microbe, parasite or virus in culture; type: cell-based, influenza virus IAV/WSN/33 (H1N1); settings: unidentified influenza virus, WSN, BEAS-2B, read-out: % Inhibition (anti-IAV)
RSV A2 strain = settings: cited from earlier work
RSV F protein [15] = target: RSV F protein (Human respiratory syncytial virus, UniProt P12568); settings: resistance sites in the RSV F protein; cited from earlier work
Chain of RSV F protein (Human respiratory syncytial virus, UniProt P12568) (P12568 137-574 limits assumed): as the sequence (P12568 137-574, looked up, stated change not applied) above
Chain of RSV F protein (Human respiratory syncytial virus, UniProt P12568) (P12568 26-109 partner limits assumed): as the sequence (P12568 26-109, looked up, stated change not applied) above

[16] = tested on: recRSV-L19FD489E-fireSMASh; type: cell-based
[17] = 95% confidence interval in parentheses, inactive = less than 50% reduction of mean reporter signal
[18] = active concentrations based on in vitro assays, when available RSV A2 strain

Cc1ccc(-n2c(SCC(=O)N/N=C/c3c4ccccc4cc4ccccc34)nnc2-c2ccccc2)cc1 [GPAR-3710]
cytotoxicity [1]: low cytotoxicity
RSV entry rate (recRSV A2-L19F [2]): significant, dose-dependent reduction
active concentrations against different RSV strains (recRSV A2-L19F [3]; dose-dependent inhibition of different RSV strains): nano- to low micromolar range
EC50 (recRSV A2-L19F [3]; human respiratory syncytial virus, active concentration based on in vitro assays, RSV entry inhibitor): 130 nM
hit status in co-infection validation assay with pan-resistant RSV-FD489E [4]: did not emerge as hits
adaptation period until robust resistance (growth in 30 μM compound) (RSV F protein [5]; gradual adaptation to increasing compound concentrations): ≤ 30 days
reported resistance sites (RSV F protein [5]; resistance sites in the RSV F protein, identified through viral adaptation): FT400A FD401E FD486E FF488I FF488S FD489E
inhibition at 0.5 µM (recRSV A2-L19F-renilla [6]): > 90%
antiviral activity in time-of-addition study (recRSV A2-L19F-ren): essentially all antiviral activity was lost
RSV F protein-mediated membrane fusion activity (RSV F protein [7]): specifically and potently inhibited

CC(=O)N[C@H]1[C@H]([C@H](O)[C@H](O)CO)OC(C(=O)O)=C[C@@H]1N=C(N)N [Zanamivir]
EC50 RSV A2-L19FD489E-fireSMASh [8]: Inactive
EC50 (recIAV WSN-NanoLuc [9]): 20 nM
CC50 (in vitro): > 10000 nM
EC50 RSV A2-L19F-renilla (recRSV A2-L19F-renilla [10]; [17]): Inactive
SI [CC50/EC50] IAV (recIAV WSN-NanoLuc [11]): SI^IAV >500
selectivity for IAV reporter (recIAV WSN-NanoLuc [11]; dose-response counterscreen): selectively inhibited the IAV reporter

COc1ccc(-n2c(SC(C)C(=O)Nc3ccc(C)cc3Cl)nc3ccccc32)cc1 (centres unmarked) [JMN3-003]
antiviral activity in time-of-addition study (recRSV A2-L19F-ren): remained potently inhibitory

Cc1c(-c2ccc(-c3ccccc3F)cc2)nc2ccc(F)cc2c1C(=O)O [Brequinar]
SI [CC50/EC50] RSV [8]: SIRSV >6.3
EC50 [12]: 1600 nM
EC50 (recIAV WSN-NanoLuc [9]): 2600 nM
CC50 (in vitro): > 10000 nM
EC50 (recRSV A2-L19F-renilla [10]; [17]): 1800 nM
SI [CC50/EC50] IAV (recIAV WSN-NanoLuc [11]): SIIAV >3.8

CC(=O)[C@]1(O)Cc2c(O)c3c(c(O)c2[C@@H](O[C@H]2C[C@H](N)[C@H](O)[C@H](C)O2)C1)C(=O)c1ccccc1C3=O [Idarubicin]
CC50 (PrestoBlue cell viability) (BEAS-2B cells): tox^d
inhibition at 5 µM [13]: 95 ± 1.3%
inhibition at 5 µM (recIAV WSN-NanoLuc [14]): 97 ± 1%

Cc1nnnn1/N=C/c1ccc(O)c(C(c2ccc(O)cc2)c2cc(/C=N/n3nnnc3C)ccc2O)c1 [VP-14637]
EC50 (RSV A2 strain; [18]): 1.4 nM
reported resistance sites (RSV F protein [15]): FT400A FF488Y

Nc1ccn([C@@H]2O[C@H](CO)[C@@H](O)C2(F)F)c(=O)n1 [Gemcitabine]
SI [CC50/EC50] RSV [8]: SIRSV >111
EC50 [12]: 90 nM
EC50 (recIAV WSN-NanoLuc [9]): 100 nM
CC50 (in vitro): > 10000 nM
EC50 (recRSV A2-L19F-renilla [10]; [17]): 50 nM
SI [CC50/EC50] IAV (recIAV WSN-NanoLuc [11]): SIIAV >100

Cc1ccc(O)c(Cn2c(NC3CCN(CCN)CC3)nc3c(C)cccc32)n1 [R170591]
EC50 (RSV A2 strain; [18]): 2 nM
reported resistance sites (RSV F protein [15]): FF488I FF488L FD489Y

C=C[C@@H]1C[C@]1(NC(=O)[C@@H]1C[C@@H](Oc2ncc(OC)c3ccc(Cl)cc23)CN1C(=O)[C@@H](NC(=O)OC(C)(C)C)C(C)(C)C)C(=O)NS(=O)(=O)C1CC1 [ASV, asunaprevir]
effect on progeny virus titers ([16]; 3 μM ASV): no effect
reduction of firefly luciferase activity ([16]; growth in the presence of 3 μM ASV): approximately 90%

ET-18-OCH3
EC50 RSV A2-L19FD489E-fireSMASh [8]: inactive^e
CC50 (BEAS-2B cells; read-out: CC50 (PrestoBlue cell viability)): > 10000 nM
EC50 RSV A2-L19F-renilla (recRSV A2-L19F-renilla [10]; [17]): inactive^e
EC50 IAV WSN-nanoLuc (recIAV WSN-NanoLuc [11]): inactive^e

NC(=O)c1ncn([C@@H]2O[C@H](CO)[C@@H](O)[C@H]2O)n1 [Ribavirin]
SI [CC50/EC50] RSV [8]: SIRSV >3.9
EC50 [12]: 2600 nM
EC50 (recIAV WSN-NanoLuc [9]): 4500 nM
CC50 (in vitro): > 10000 nM
EC50 (recRSV A2-L19F-renilla [10]; [17]): 2900 nM
SI [CC50/EC50] IAV (recIAV WSN-NanoLuc [11]): SIIAV >2.2

CC[C@H]1CN2CCc3cc(OC)c(OC)cc3[C@@H]2C[C@@H]1C[C@H]1NCCc2cc(OC)c(OC)cc21 [Emetine]
CC50 (PrestoBlue cell viability) (BEAS-2B cells): tox^d

Nc1nc(N)c2nc(CNc3ccc(C(=O)N[C@@H](CCC(=O)O)C(=O)O)cc3)cnc2n1 [Aminopterin]
SI [CC50/EC50] RSV [8]: SIRSV 143
EC50 [12]: 70 nM
EC50 (recIAV WSN-NanoLuc [9]): 90 nM
CC50 (in vitro): 10000 nM
EC50 (recRSV A2-L19F-renilla [10]): 50 nM
SI [CC50/EC50] IAV (recIAV WSN-NanoLuc [11]): SIIAV 111

O=c1n(Cc2nc3ccccc3n2CCCCO)c2cnccc2n1C1CC1 [BMS-433771]
EC50 (RSV A2 strain): 10 nM
reported resistance sites (RSV F protein [15]): FF140I FV144A FD392G FK394R FD489Y

CC1=C(/C=C/C(C)=C/C=C/C(C)=C/C(=O)Nc2ccc(O)cc2)C(C)(C)CCC1 [Fenretinide]
SI [CC50/EC50] RSV [8]: SIRSV >2.8
selectivity for RSV reporter ([8]; dose-response counterscreen): selectively inhibited RSV
EC50 [12]: 3600 nM
CC50 (in vitro): > 10000 nM
EC50 (recRSV A2-L19F-renilla [10]; [17]): 4800 nM
EC50 IAV WSN-nanoLuc (recIAV WSN-NanoLuc [11]): inactive^e
effect on IAV reporter strain (recIAV WSN-NanoLuc [11]; highest concentration tested): unaffected

Cn1c(=O)c(-c2c(Cl)cccc2Cl)cc2cnc(Nc3ccc(N4CCOCC4)cc3)nc21 [PD173952]
CC50 (PrestoBlue cell viability) (BEAS-2B cells): tox^d

CCN(CC)CCNC(=O)c1c(C)[nH]c(/C=C2\C(=O)Nc3ccc(F)cc32)c1C [Sunitinib]
CC50 (PrestoBlue cell viability) (BEAS-2B cells): tox^d

CCN(CC)CCOc1ccc(Nc2ncc3cc(-c4c(Cl)cccc4Cl)c(=O)n(C)c3n2)cc1 [PD-166285]
CC50 (PrestoBlue cell viability) (BEAS-2B cells): tox^d

Cc1ccc(O)c(Cn2c(NC3CCN(CCN)CC3)nc3c(C)cccc32)n1 [JNJ2408068]
EC50 (RSV A2 strain; [18]): 2.1 nM
reported resistance sites (RSV F protein [15]): FK399I FD486N FE487D

CC(C)[C@]12O[C@H]1[C@@H]1O[C@]13[C@]1(O[C@H]1C[C@H]1C4=C(CC[C@@]13C)C(=O)OC4)[C@@H]2O [Triptolide]
EC50 [12]: 400 nM
EC50 (recIAV WSN-NanoLuc [9]): 150 nM
inhibition at 5 µM [13]: 1.5 ± 21%
CC50 (in vitro): 300 nM
inhibition at 5 µM (recIAV WSN-NanoLuc [14]): 103 ± 1.2%
EC50 (recRSV A2-L19F-renilla [10]; [17]): 600 nM
SI (CC50/EC50) value at dose-response testing (recIAV WSN-NanoLuc [11]; virus not given): below two

C[n+]1cc2c3c(ccc2c2ccc4cc5c(cc4c21)OCO5)OCO3 [Sanguinarine]
CC50 (PrestoBlue cell viability) (BEAS-2B cells): tox^d

Cc1ccc(CCCO)c(NCc2ccc3nc(NCCCN4CCOCC4)n(Cc4nc(C)ccc4O)c3c2)c1 [TMC353121]
EC50 (RSV A2 strain): 0.13 nM
reported resistance sites (RSV F protein [15]): FK394R FS398L FD486N

Nc1nc2c(c(=O)[nH]1)C[C@@H](CCc1ccc(C(=O)N[C@@H](CCC(=O)O)C(=O)O)cc1)CN2 [Lometrexol]
CC50 (PrestoBlue cell viability) (BEAS-2B cells): tox^d
